pIC50: −log10 of the molar value.
Target: interaction of human SOS1 (SOS1) with human K-RasG12C (Homo sapiens (Human), UniProt Q07889)
Assay: Biochemical assay: hK-RasG12C interaction assay with hSOS1 (HTRF)
Format: binding
Conditions: GST-hK-RasG12C with His-hSOS1, 60 min incubation at 20° C., mean, read-out: K-RasG12C - SOS interaction assay IC50 (mean)
Experimental: Biochemical Assay: hK-RasG12C Interaction Assay with hSOS1 This assay quantifies the equilibrium interaction of human SOS1 (SOS1) with human K-Ras^G12^C (K-RasG12C). Detection of the interaction is achieved by measuring homogenous time-resolved fluorescence resonance energy transfer (HTRF) from antiGST-Europium (FRET donor) bound to GST-K-RasG12C to anti-6His-XL665 bound to His-tagged hSOS1 (FRET-acceptor). The assay buffer containes 5 mM HEPES pH 7.4 (Applichem), 150 mM NaCl (Sigma), […] (Promega), 1 mM DTT (Thermofisher), 0.05% BSA Fraction V, pH 7.0, (ICN Biomedicals), 0.0025% (v/v) Igepal (Sigma) and 100 mM KF (FLUKA). The expression and purification of N-terminally GST-tagged human K-RasG12C (termed GST-hK-RasG12C) and N-terminally His-tagged human SOS1 (termed His10-hSOS1) is described in WO 2019/201848, page 220 line 12-34 and page 222, line 13-25 (expression) and page 222, line 26 to page 223, line 17 (purification). Concentrations of protein batches used are optimized to be within the linear range of the HTRF signal. A Ras working solution is prepared in assay buffer containing typically 10 nM GST-hK-RasG12C and 2 nM antiGST-Eu(K) (Cisbio, France). A SOS1 working solution is prepared in assay buffer containing typically 20 nM His-hSOS1 and 10 nM anti-6His-XL665 (Cisbio, France). An inhibitor control solution is prepared in assay buffer containing nM anti-6His-XL665 without SOS1. Fifty nl of a 100-fold concentrated solution of the test compound in DMSO are transferred into a black microtiter test plate (384 or 1536, Greiner Bio-One, Germany). For this, either a Hummingbird liquid handler (Digilab, MA, USA) or an Echo acoustic system (Labcyte, CA, USA) is used. All steps of the assay are performed at 20° C. A volume of 2.5 μl of the Ras working solution is added to all wells of the test plate using a Multidrop dispenser (Thermo Labsystems). After 2 min preincubation, 2.5 μl of the SOS1 working solution are added to all wells except for those wells at the side of the test plate that are subsequently filled with 2.5 μl of the inhibitor control solution. After 60 min incubation the fluorescence is measured with a Pherastar (BMG, Germany) using the HTRF module (excitation 337 nm, emission 1: 620 nm, emission 2: 665 nm). The ratiometric data (emission 2 divided by emission 1) are normalized using the controls (DMSO=0% inhibition, inhibition control wells with inhibitor control solution=100% inhibition). Compounds are tested in duplicates at up to 11 concentrations (for 20 μM, 5,7 μM, 1,6 μM, 0.47 μM, 0.13 μM, 38 nM, 11 nM, 3.1 nM, 0.89 nM, 0.25 nM and 0.073 nM). IC50 values are calculated by 4-Parameter fitting using a commercial software package (Genedata Screener, Switzerland).

Chain of interaction of human SOS1 (SOS1) with human K-RasG12C (Q07889 564-1049 limits assumed): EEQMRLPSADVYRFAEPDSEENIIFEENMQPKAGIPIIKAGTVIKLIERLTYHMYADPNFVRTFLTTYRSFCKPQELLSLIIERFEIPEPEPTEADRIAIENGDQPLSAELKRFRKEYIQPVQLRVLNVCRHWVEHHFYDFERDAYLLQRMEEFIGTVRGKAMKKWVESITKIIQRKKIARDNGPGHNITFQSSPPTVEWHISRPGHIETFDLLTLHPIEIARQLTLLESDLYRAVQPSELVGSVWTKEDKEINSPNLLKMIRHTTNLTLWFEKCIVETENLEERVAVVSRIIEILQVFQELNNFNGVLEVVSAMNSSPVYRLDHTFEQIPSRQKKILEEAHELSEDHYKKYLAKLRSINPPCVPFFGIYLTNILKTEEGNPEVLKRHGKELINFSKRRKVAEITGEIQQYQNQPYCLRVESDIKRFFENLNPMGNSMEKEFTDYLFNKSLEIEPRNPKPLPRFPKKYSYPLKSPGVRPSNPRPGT

Structure (SMILES)	pIC50
CCc1nc(P(C)(C)=O)cc2c(N[C@H](C)c3cccc(C(F)(F)C(O)CC)c3F)nc(C)nc12 (mixture of isomers) [Example 38, (2RS)-1-{3-[(1R)-1-{[6-(dimethylphosphoryl)-8-ethyl-2-methylpyrido[3,4-d]pyrimidin-4-yl]amino}ethyl]-2-fluorophenyl}-1,1-difluorobutan-2-ol]	7.97
Cc1nc(N[C@H](C)c2cccc(C(F)(F)[C@@H](C)O)c2F)c2cc(P(C)(C)=O)ncc2n1 (relative stereo) [Example 113, (2R*)-1-{3-[(1R)-1-{[6-(dimethylphosphoryl)-2-methylpyrido[3,4-d]pyrimidin-4-yl]amino}ethyl]-2-fluorophenyl}-1,1-difluoropropan-2-ol]	8.11
Cc1nc(N[C@H](C)c2cccc(C(F)(F)[C@H](O)C(C)(C)C)c2F)c2cc(P(C)(C)=O)ncc2n1 (relative stereo) [Example 137, (2R*)-1-{3-[(1R)-1-{[6-(dimethylphosphoryl)-2-methylpyrido[3,4-d]pyrimidin-4-yl]amino}ethyl]-2-fluorophenyl}-1,1-difluoro-3,3-dimethylbutan-2-ol]	8.39
Cc1nc(NC(C)c2ccnc(C(F)(F)F)c2)c2cc(P(C)(C)=O)ncc2n1 (single isomer, unassigned) [Example 24, 6-(dimethylphosphoryl)-2-methyl-N-{1-[2-(trifluoromethyl)pyridin-4-yl]ethyl}pyrido[3,4-d]pyrimidin-4-amine]	< 4.70
CCC(O)C(F)(F)c1cccc([C@@H](C)Nc2nc(C)nc3cnc(P(C)(C)=O)cc23)c1F (single isomer, unassigned) [Example 65, (2R*)-1-{3-[(1R)-1-{[6-(dimethylphosphoryl)-2-methylpyrido[3,4-d]pyrimidin-4-yl]amino}ethyl]-2-fluorophenyl}-1,1-difluorobutan-2-ol]	7.98
Cc1nc(N[C@H](C)c2cccc(C(F)(F)C(O)C(C)C)c2F)c2cc(P(C)(C)=O)ncc2n1 (single isomer, unassigned) [Example 66, (2R*)-1-{3-[(1R)-1-{[6-(dimethylphosphoryl)-2-methylpyrido[3,4-d]pyrimidin-4-yl]amino}ethyl]-2-fluorophenyl}-1,1-difluoro-3-methylbutan-2-ol]	7.60
CCP(C)(=O)c1cc2c(N[C@H](C)c3cccc(C(F)(F)C(C)(C)O)c3F)nc(C)nc2cn1 (single isomer, unassigned) [Example 68]	7.55
CCP(C)(=O)c1cc2c(N[C@H](C)c3cccc(C(F)(F)C(C)(C)O)c3F)nc(C)nc2cn1 (single isomer, unassigned) [Example 69]	7.71
CCP(C)(=O)c1cc2c(N[C@H](C)c3cccc(C(F)(F)C(C)O)c3F)nc(C)nc2cn1 (single isomer, unassigned) [Example 73, (2R*)-1-{3-[(1R)-1-{{6-[ethyl(methyl)phosphoryl]-2-methylpyrido[3,4-d]pyrimidin-4-yl}amino)ethyl]-2-fluorophenyl}-1,1-difluoropropan-2-ol]	7.95
CCP(C)(=O)c1cc2c(N[C@H](C)c3cccc(C(F)(F)C(C)O)c3F)nc(C)nc2cn1 (single isomer, unassigned) [Example 74, (2R*)-1-{3-[(1R)-1-{{6-[ethyl(methyl)phosphoryl]-2-methylpyrido[3,4-d]pyrimidin-4-yl}amino)ethyl]-2-fluorophenyl}-1,1-difluoropropan-2-ol]	7.61
CCP(C)(=O)c1cc2c(N[C@H](C)c3cccc(C(F)(F)C(C)O)c3F)nc(C)nc2cn1 (single isomer, unassigned) [Example 75, (2R*)-1-{3-[(1R)-1-{{6-[ethyl(methyl)phosphoryl]-2-methylpyrido[3,4-d]pyrimidin-4-yl}amino)ethyl]-2-fluorophenyl}-1,1-difluoropropan-2-ol]	7.82
CCP(C)(=O)c1cc2c(N[C@H](C)c3cccc(C(F)(F)C(C)O)c3F)nc(C)nc2cn1 (single isomer, unassigned) [Example 76, (2R*)-1-{3-[(1R)-1-({6-[ethyl(methyl)phosphoryl]-2-methylpyrido[3,4-d]pyrimidin-4-yl}amino)ethyl]-2-fluorophenyl}-1,1-difluoropropan-2-ol]	7.67
CCP(C)(=O)c1cc2c(N[C@H](C)c3cccc(C(F)(F)C(C)O)c3F)nc(C)nc2cn1 (single isomer, unassigned) [Example 77, (2R*)-1-{3-[(1R)-1-{{6-[ethyl(methyl)phosphoryl]-2-methylpyrido[3,4-d]pyrimidin-4-yl}amino)ethyl]-2-fluorophenyl}-1,1-difluoropropan-2-ol]	7.75
CCP(C)(=O)c1cc2c(N[C@H](C)c3cccc(C(F)(F)C(C)O)c3F)nc(C)nc2cn1 (single isomer, unassigned) [Example 78, (2R*)-1-{3-[(1R)-1-{{6-[ethyl(methyl)phosphoryl]-2-methylpyrido[3,4-d]pyrimidin-4-yl}amino)ethyl]-2-fluorophenyl}-1,1-difluoropropan-2-ol]	7.66

Now from value to compound:

pIC50	Structure (SMILES)
7.91	CCCCC(C)(O)C(F)(F)c1cccc([C@@H](C)Nc2nc(C)nc3cnc(P(C)(C)=O)cc23)c1F (mixture of isomers) [Example 23, (2RS)-1-{3-[(1R)-1-{[6-(dimethylphosphoryl)-2-methylpyrido[3,4-d]pyrimidin-4-yl]amino}ethyl]-2-fluorophenyl}-1,1-difluoro-2-methylhexan-2-ol]
5.31	Cc1nc(NC(C)c2ccnc(C(F)(F)F)c2)c2cc(P(C)(C)=O)ncc2n1 (single isomer, unassigned) [Example 25, 6-(dimethylphosphoryl)-2-methyl-N-{1-[2-(trifluoromethyl)pyridin-4-yl]ethyl}pyrido[3,4-d]pyrimidin-4-amine]
7.45	Cc1nc(N[C@H](C)c2cccc(C(F)(F)C(C)(C)O)c2F)c2cc(P(C)(=O)C(C)C)ncc2n1 (single isomer, unassigned) [Example 71]
7.61	Cc1nc(N[C@H](C)c2cccc(C(F)(F)C(C)(C)O)c2F)c2cc(P(C)(=O)C(C)C)ncc2n1 (single isomer, unassigned) [Example 72]
7.91	Cc1nc(N[C@H](C)c2cccc(C(F)(F)C(C)O)c2F)c2cc(P(C)(=O)C(C)C)ncc2n1 (single isomer, unassigned) [Example 79, (2R*)-1,1-difluoro-1-{2-fluoro-3-[(1R)-1-({2-methyl-6-[methyl(propan-2-yl)phosphoryl]pyrido[3,4-d]pyrimidin-4-yl}amino)ethyl]phenyl}propan-2-ol]
8.23	Cc1nc(N[C@H](C)c2cccc(C(F)(F)C(C)O)c2F)c2cc(P(C)(=O)C(C)C)ncc2n1 (single isomer, unassigned) [Example 80, (2R*)-1,1-difluoro-1-{2-fluoro-3-[(1R)-1-({2-methyl-6-[methyl(propan-2-yl)phosphoryl]pyrido[3,4-d]pyrimidin-4-yl}amino)ethyl]phenyl}propan-2-ol]
7.99	Cc1nc(N[C@H](C)c2cccc(C(F)(F)C(C)O)c2F)c2cc(P(C)(=O)C(C)C)ncc2n1 (single isomer, unassigned) [Example 81, (2R*)-1,1-difluoro-1-{2-fluoro-3-[(1R)-1-({2-methyl-6-[methyl(propan-2-yl)phosphoryl]pyrido[3,4-d]pyrimidin-4-yl}amino)ethyl]phenyl}propan-2-ol]

Source: patent publication US20240247015A1, “PHOSPHORUS DERIVATIVES AS NOVEL SOS1 INHIBITORS” (BAYER AKTIENGESELLSCHAFT, priority 2021, published 2024)
